This note sets out measurements from US9018383B2, “Acylamino-substituted cyclic carboxylic acid derivatives and their use as pharmaceuticals” (Sanofi, priority 2009, dated 2015).

Where only a bound is given, the exact number is not on record here.

Sequence of human Edg-2 receptor (Q92633 whole entry): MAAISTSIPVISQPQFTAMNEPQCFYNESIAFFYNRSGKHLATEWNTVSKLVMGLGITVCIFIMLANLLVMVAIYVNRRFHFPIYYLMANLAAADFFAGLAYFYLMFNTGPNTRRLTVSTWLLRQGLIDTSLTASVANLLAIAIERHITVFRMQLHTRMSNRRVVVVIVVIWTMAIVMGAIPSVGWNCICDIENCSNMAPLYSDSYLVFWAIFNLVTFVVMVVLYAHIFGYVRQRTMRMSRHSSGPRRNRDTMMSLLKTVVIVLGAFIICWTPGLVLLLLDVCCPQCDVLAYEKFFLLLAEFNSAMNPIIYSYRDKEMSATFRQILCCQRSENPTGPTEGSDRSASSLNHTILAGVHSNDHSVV

This experiment addresses human Edg-2 receptor (Homo sapiens, UniProt Q92633). Nature of the experiment: Determination of Edg-2 receptor inhibition by FLIPR measurements (LPA-mediated calcium liberation). The class given is cell-based. The following applies: CHO cells overexpressing human Edg-2 receptor, LPA 100 nM, fluo-4 calcium fluorescence; read-out: Inhibitory concentrations IC50 for inhibition of the Edg-2 receptor. The method, then:
A) Determination of Edg-2 Receptor Inhibition by Fluorescence Imaging Plate Reader (FLIPR) Measurements
The inhibition of the Edg-2 receptor (LPA1 receptor) by the compounds of the invention was quantified by the inhibitory effect on the LPA-mediated calcium liberation in a cell-based calcium fluorescence assay by use of Chinese hamster ovarian (CHO) cells in which the human Edg-2 receptor was stably overexpressed (Flp-In system, Invitrogen). […] Changes in intracellular calcium were determined by fluorescence measurement with the calcium-sensitive dye fluo-4 (Invitrogen) in a fluorescence imaging plate reader (FLIPR, […]).
CHO cells stably overexpressing the human Edg-2 receptor were seeded (40.000 per well) in black clear-bottomed poly-D-lysine-coated 96 well plates (Becton Dickinson, Biocoat cellware) approximately 18-24 h prior to the experiments. Cells were grown in an incubator at 37° C., 5% carbon dioxide and 95% humidity in cell culture media based on F-12 glutamax media (Gibco, #31765) supplemented with 1% (vol/vol) penicilline/streptomycine (PAN, #P06-07100), 10% (vol/vol) fetal calf serum (FCS, PAA, #A15-151) and hygromycin B (Invitrogen, #10687-010) 300 mg/l (final concentrations).
Prior to the FLIPR experiment, cells were loaded with fluo-4 acetoxymethyl ester (fluo-4 AM, Invitrogen, #F14202) for 60 min in an incubator at 37° C., 5% carbon dioxide and 95% humidity in dye-loading buffer consisting of Hanks' Balanced Salt Solution (HBSS, Invitrogen, #14065049) supplemented with fluo-4 AM at 2 μM (all data given for final concentration), Pluronic® F-127 0.05% (vol/vol) (Invitrogen, #P-3000 MP), HEPES 20 mM (Gibco, #15630), probenecid 2.5 mM (Sigma, #P-8761) and bovine serum albumin 0.05% (BSA, Sigma, #A-6003), adjusted to pH 7.5 with sodium hydroxide. During cell loading, fluo-4 AM is cleaved by intracellular esterase resulting in trapping of the dye fluo-4 within the cells. Loading was terminated by washing of the cells in a cell washer (Tecan Power washer) three times with the buffer specified afore but without fluo-4 AM and BSA. This latter buffer was also used as the buffer in the subsequent cell fluorescence measurements.
The dye-loaded and washed cells were pre-incubated for approximately 5 min with various concentrations of the test compound added as a solution in DMSO (0.3% vol/vol maximum final concentration of DMSO), or with DMSO in the respective concentration only (positive control). Subsequent addition of LPA (18:1, 1-oleoyl-sn-glycerol 3-phosphate; 100 nM final concentration) leads to liberation of intracellular calcium from internal stores resulting in a large transient increase of the fluo-4 fluorescence signal which was monitored over approximately 3 min. The percent inhibition caused by the test compound was determined from the maximum fluorescence response after LPA addition to cells pre-incubated with the compound as compared to the maximum fluorescence response after LPA addition to cells pre-incubated with DMSO only. All fluorescence values were corrected for the baseline fluorescence values obtained with cells which were pre-incubated with DMSO only and were not treated with LPA (baseline control). All measurements were performed in triplicate. From the percent inhibitions the inhibitory concentration IC50 was determined.
In the case of `COc1ccc(C(=O)NC2(C(=O)O)CCCCCC2)cc1OCCc1c(C)n[nH]c1C` [Example 4], the IC50 was in the range of 0.1 to 1 µM.
Regarding `CC[C@@H]1C[C@]1(NC(=O)c1ccc(OC)c(-c2cccc(C(F)(F)F)c2)c1)C(=O)O` [Example 427, (1R,2R)-2-Ethyl-1-[(6-methoxy-3′-trifluoromethyl-biphenyl-3-carbonyl)-amino]-cyclopropanecarboxylic acid], the IC50 lay in the range of 0.1 to 1 µM.
As for `COc1ncc(C(=O)N[C@]2(C(=O)O)CC[C@@H](C)CC2)cc1-c1cccc(Cl)c1Cl` [Example 311], the IC50 was under 0.1 µM.
Regarding `COc1ccc(C(=O)N[C@]2(C(=O)O)CC[C@H](C)CC2)cc1-c1cccc(C(F)(F)F)c1` [Example 333], the IC50 is under 0.1 µM.
`CC[C@H]1CC[C@@](NC(=O)c2ccc(OC)c(OCCc3ccccc3)c2)(C(=O)O)CC1` [Example 205]: the IC50 is under 0.1 µM.
On to `COc1ncc(C(=O)NC2(C(=O)O)CCCCCC2)cc1-c1cccc(Cl)c1Cl` [Example 97], for which the IC50 is under 0.1 µM.
For `CC[C@H]1CC[C@@](NC(=O)c2cnc(OC)c(OCCc3cccc(C)c3)c2)(C(=O)O)CC1` [Example 395, trans-4-Ethyl-1-{[6-methoxy-5-(2-m-tolyl-ethoxy)-pyridine-3-carbonyl]-amino}-cyclohexanecarboxylic acid] the value was under 0.1 µM; for `CC[C@H]1CC[C@@](NC(=O)c2cnc(OC)c(OCCc3ccccc3)c2)(C(=O)O)CC1` [Example 355, trans-4-Ethyl-1-[(6-methoxy-5-phenethyloxy-pyridine-3-carbonyl)-amino]-cyclohexanecarboxylic acid], under 0.1 µM.
Then `COc1ccc(C(=O)NC2(C(=O)O)CCCCCC2)cc1OCC(O)c1cccc(C)c1` (stereo not drawn) [Example 73, 1-[3-(2-Hydroxy-2-m-tolyl-ethoxy)-4-methoxy-benzoylamino]-cycloheptanecarboxylic acid], with 1 to 30 µM; and `C[C@H]1CC[C@@](NC(=O)c2ccc(C(F)(F)F)c(-n3ccc4ccccc43)c2)(C(=O)O)CC1` [Example 452, 1-(3-Indol-1-yl-4-trifluoromethyl-benzoylamino)-4-methyl-cyclohexanecarboxylic acid], with 0.1 to 1 µM.
With `COc1ncc(C(=O)N[C@]2(C(=O)O)CC[C@@H](C)CC2)cc1OCCc1ccccc1` [Example 83, trans-1-{[6-Methoxy-5-(2-phenyl-ethoxy)-pyridine-3-carbonyl]-amino}-4-methyl-cyclohexanecarboxylic acid], the IC50 is under 0.1 µM.
For `CC[C@H]1CC[C@](NC(=O)c2cnc(OCCO)c(-c3ccc(F)c(F)c3)c2)(C(=O)O)CC1` [Example 414], the IC50 is under 0.1 µM.
Then `COc1ccc(C(=O)NC2(C(=O)O)CCCC3(CC2)OCCO3)cc1OCCc1cccc(C)c1` (stereo not drawn) [Example 51, 8-[4-Methoxy-3-(2-m-tolyl-ethoxy)-benzoylamino]-1,4-dioxa-spiro[4.6]undecane-8-carboxylic acid], with under 0.1 µM; and `COc1ccc(C(=O)NC2(C(=O)O)CCC3(CC2)OCCO3)cc1OCCc1cccc(C)c1` [Example 54, 8-[4-Methoxy-3-(2-m-tolyl-ethoxy)-benzoylamino]-1,4-dioxa-spiro[4.5]decane-8-carboxylic acid], with under 0.1 µM.
Regarding `COc1ccc(C(=O)NC2(C(=O)O)CCCCCC2)cc1CCCc1cccc(C)c1` [Example 72, 1-[4-Methoxy-3-(3-m-tolyl-propyl)-benzoylamino]-cycloheptanecarboxylic acid], the IC50 is under 0.1 µM.
On to `COc1ccc(C(=O)NC2(C(=O)O)CCCC(C)CC2)cc1OCCc1cccc(C)c1` (stereo not drawn) [Example 46], for which the IC50 is under 0.1 µM.
For `COc1ccc(C(=O)NC2(C(=O)O)CC3CCC(C3)C2)cc1OCCc1cccc(C)c1` (stereo not drawn) [Example 47] the value was under 0.1 µM; for `COc1ncc(C(=O)N[C@]2(C(=O)O)CC[C@H](C)CC2)cc1OCCc1cccc(C)c1` [Example 79, cis-1-{[6-Methoxy-5-(2-m-tolyl-ethoxy)-pyridine-3-carbonyl]-amino}-4-methyl-cyclohexanecarboxylic acid], under 0.1 µM.
Then `COCCOc1ccc(C(=O)N[C@]2(C(=O)O)CC[C@H](C)CC2)cc1OCCc1cccc(Cl)c1` [Example 113, cis-1-[3-[2-(3-Chloro-phenyl)-ethoxy]-4-(2-methoxy-ethoxy)-benzoylamio]-4-methyl-cyclohexanecarboxylic acid], with 0.1 to 1 µM; and `COc1ccc(C(=O)NC2(C(=O)O)CCCCCC2)cc1OCCc1ccccc1Cl` [Example 364], with under 0.1 µM; and `COc1ccc(C(=O)NC2(C(=O)O)CCC3CC3CC2)cc1OCCc1cccc(C)c1` (stereo not drawn) [Example 75], with under 0.1 µM.
Take `CC[C@H]1CC[C@@](NC(=O)c2cnc(OC)c(-c3ccc(Cl)c(C(F)(F)F)c3)c2)(C(=O)O)CC1` [Example 408]: the IC50 was in the range of 0.1 to 1 µM.
Turning to `COc1ccc(C(=O)NC2(C(=O)O)CCC(C(F)(F)F)CC2)cc1OCCc1cccc(C)c1` (stereo not drawn) [Example 369], the IC50 was 0.1 to 1 µM.
In the case of `COc1ccc(C(=O)NC2(C(=O)O)CCC(C(C)C)CC2)cc1OCCc1cccc(C)c1` (stereo not drawn) [Example 370], the IC50 is under 0.1 µM.
With `COc1ccc(C(=O)NC2(C(=O)O)CCCCCC2)cc1OCCc1cc(OC(F)(F)F)ccc1F` [Example 5], the IC50 was under 0.1 µM.
On to `COc1ncc(C(=O)N[C@]2(C(=O)O)CC[C@@H](C)CC2)cc1OCCc1cc(C)ccc1C` [Example 84, trans-1-({5-[2-(2,5-Dimethyl-phenyl)-ethoxy]-6-methoxy-pyridine-3-carbonyl}-amino)-4-methyl-cyclohexanecarboxylic acid], for which the IC50 lay within 1 to 30 µM.
Then `COc1ccc(C(=O)NC2(C(=O)O)CC(C)C2)cc1OCCc1cccc(C)c1` (stereo not drawn) [Example 76, 1-[4-Methoxy-3-(2-m-tolyl-ethoxy)-benzoylamino]-3-methyl-cyclobutanecarboxylic acid], with under 0.1 µM; and `COc1ncc(C(=O)N[C@]2(C(=O)O)CC[C@@H](C)CC2)cc1OCCc1cc(Cl)ccc1F` [Example 81, trans-1-({5-[2-(5-Chloro-2-fluoro-phenyl)-ethoxy]-6-methoxy-pyridine-3-carbonyl}-amino)-4-methyl-cyclohexanecarboxylic acid], with under 0.1 µM.
As for `COc1ccc(C(=O)NC2(C(=O)O)CCCC(=O)CC2)cc1OCCc1cccc(C)c1` (stereo not drawn) [Example 52, 1-[4-Methoxy-3-(2-m-tolyl-ethoxy)-benzoylamino]-4-oxo-cycloheptanecarboxylic acid], the IC50 lay within 1 to 30 µM.
Turning to `COCCOc1ccc(C(=O)NC2(C(=O)O)CCCCCC2)cc1OCCc1cccc(C)c1` [Example 116, 1-[4-(2-Methoxy-ethoxy)-3-(2-m-tolyl-ethoxy)-benzoylamino]-cycloheptanecarboxylic acid], the IC50 was in the range of 1 to 30 µM.
Regarding `CC[C@H]1CC[C@](NC(=O)c2ccc(OC)c(-c3ccc(OC)c(Cl)c3)c2)(C(=O)O)CC1` [Example 351], the IC50 was under 0.1 µM.
As for `COc1ncc(C(=O)N[C@]2(C(=O)O)CC[C@H](C)CC2)cc1-c1cc(F)cc(F)c1` [Example 410], the IC50 was under 0.1 µM.
Consider `COc1ccc(C(=O)NC2(C(=O)O)CCCCCC2)cc1OCCc1ccccc1` [Example 8], for which the IC50 was under 0.1 µM.
In the case of `COc1ncc(C(=O)N[C@]2(C(=O)O)CC[C@H](C)CC2)cc1OCCc1cccc(CCO)c1` [Example 91, cis-1-[(5-{2-[3-(2-Hydroxy-ethyl)-phenyl]-ethoxy}-6-methoxy-pyridine-3-carbonyl)-amino]-4-methyl-cyclohexanecarboxylic acid], the IC50 is under 0.1 µM.
Turning to `CC[C@H]1CC[C@](NC(=O)c2cnc(OCCO)c(-c3cccc(C(F)(F)F)c3)c2)(C(=O)O)CC1` [Example 413, 4-Ethyl-1-{[6-(2-hydroxy-ethoxy)-5-(3-trifluoromethyl-phenyl)-pyridine-3-carbonyl]-amino}-cyclohexanecarboxylic acid], the IC50 was under 0.1 µM.
As for `CC[C@H]1CC[C@](NC(=O)c2cnc(OCCO)c(-c3cccc(OC(F)(F)F)c3)c2)(C(=O)O)CC1` [Example 416], the IC50 was under 0.1 µM.
